Assay: physchem
Conditions: 20 °C

## CCN1OCC(NC(=O)c2ccc(C3=NOC(c4cc(Cl)c(F)c(Cl)c4)(C(F)(F)F)C3)cc2C)C1=O (stereo not shown) [Isocycloseram]
  solubility: < 5 µg/mL

Reference: patent publication US20240057603A1, “ISOCYCLOSERAM FORMULATION” (SYNGENTA CROP PROTECTION AG, priority 2020, published 2024)
